Patent US6376753B1, “PURIFIED CYTOCHROME P450 POLYPEPTIDE CYP76B1 FROM HELIANTHUS TUBEROSUS AND ITS APPLICATIONS AS BIOCATALYST IN PARTICULAR FOR THE DEGRADATION OF ENVIRONMENTAL POLLUTANTS AND FOR ALTERING THE RESISTANCE OF PLANTS SENSITIVE TO PHENYLUREA FAMILY OF HERBICIDES” (priority 1997, dated 2002)

Experiments:
[1] = system: control yeast microsomes; experiment: Metabolism in control yeast microsomes (void plasmid pYeDP60); assay type: biochemical, Saccharomyces cerevisiae; conditions: NADPH
[2] = system: microsomes from aminopyrine-induced H. tuberosus tuber tissues; experiment: ECOD activity in microsomes from aminopyrine-induced tuber tissues; assay type: biochemical, Helianthus tuberosus
Text: Gels were stained with Coomassie Blue R-250. […] The data are means ± S.D. of triplicates.
Table 1: NADPH- and cumene hydroperoxide-dependent ECOD activity in microsomes from aminopyrine-induced H. tuberosus tuber tissues and in microsomes from control and CYP76B1-transformed yeast. Immunoinhibition by anti-ECOD antibodies.

[3] = biological target: T1, CYP76B1 (Helianthus tuberosus, UniProt O23976); experiment: CYP76B1-dependent metabolism (O-/N-dealkylation) in microsomes of transformed yeast; conditions: for ECOD activity: Transformed yeast W(R); for Activity: + NADPH; for turnover of the dealkylation: for phenylureas first dealkylation
T1 sequence (O23976 1-490): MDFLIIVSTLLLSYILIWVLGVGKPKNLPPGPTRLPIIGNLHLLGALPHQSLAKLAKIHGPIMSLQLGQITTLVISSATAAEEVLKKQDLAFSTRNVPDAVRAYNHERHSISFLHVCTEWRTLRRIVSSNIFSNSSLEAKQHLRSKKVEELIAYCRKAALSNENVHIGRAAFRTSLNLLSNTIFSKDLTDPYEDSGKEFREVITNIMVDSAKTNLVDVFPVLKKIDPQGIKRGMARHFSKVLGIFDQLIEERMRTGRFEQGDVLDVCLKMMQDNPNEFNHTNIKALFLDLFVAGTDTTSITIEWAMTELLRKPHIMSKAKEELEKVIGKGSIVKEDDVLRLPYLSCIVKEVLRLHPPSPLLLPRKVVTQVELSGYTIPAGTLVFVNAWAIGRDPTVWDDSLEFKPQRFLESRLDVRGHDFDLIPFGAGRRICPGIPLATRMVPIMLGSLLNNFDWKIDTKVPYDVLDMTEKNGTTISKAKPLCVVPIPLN
Procedure: BamHI and EcoRI sites were introduced by PCR just upstream of the ATG and downstream of the stop codon of the CYP76B1 coding sequence, using the primers 5′-[…] (sense) 5′-[…] (reverse) (SEQ ID NO 3 and SEQ ID NO 4 respectively). The PCR mixture was preheated for 2 min at 92° C. before addition of 1 unit of Pfu DNA polymerase (Stratagene). After 3 min additional heating at 92° C., 30 cycles of amplification were carried out as follows 1 min denaturation at 92° C., 1 min annealing at 52° C., 2 min extension at 72° C. The reaction was completed by 10 min extension at 72° C. After BamHI/EcoRI digestion, the 1470 bp coding sequence was inserted into the vector pYeDP60 (32). Transformation of Saccharomyces cerevisiae W(R), WAT11 and WAT21, and yeast growth were conducted according to Pompon et al. (32). Yeast microsomes were prepared as described in Pierrel et al. (33) with addition of 1% SAB, 2 mM β-mercaptoethanol, 10 mM sodium disulfite and 1 mM PMSF to the extraction buffer. When indicated, 0.5 mM δ-aminolevulinic acid methyl ester (Sigma) was added to the induction medium, or cells were stored at 4° C. for 24 h before preparation of the microsomes.
(§1) Spectrophotometric measurements of P450 content and substrate binding were performed as in (Gabriac et al., 1991) and SDS-PAGE was performed as in Gabriac et al. (34). Gels were stained with Coomassie Blue R-250. Alkoxycoumarins and alkoxyresorufins O-dealkylation was measured by fluorometry (Werck-Reichhart et al., 1990). The data are means ± S.D. of triplicates.
The conversion of other molecules was assayed by TLC or HPLC analysis of polar metabolites formed from radiolabeled compounds (Cabello-Hurtado et al., 1998a, b). NADPH-cytochrome c reductase was assayed according to (Benveniste et al., 1986). Kinetic data were fitted using the nonlinear regression program […] (Duggleby, 1984).
10 μL of non-immune serum or of serum raised against purified ECOD fraction were preincubated 2 min at room temperature with 10 μL of microsomes before addition of the reaction mix. n.d.: not detectable.
Conversion was estimated from the sum of the two polar metabolites detected after TLC analysis. Data are means + S.D. of two to four determinations. n.d.: not detected.
CYP76B1 concentrations in the MCOD, ECOD, MROD and EROD fluorometric assays were 1.5 nM or 2.1 nM, depending on the coexpressed ATR1 or yeast reductases. In the CTUDM assays, CYP76B1 concentrations were 1.7 nM (ATR1) and 8 nM (yeast), respectively. It was 12 nM for the determination of the catalytic parameters of monodemethyl-CTUDM, and 1.7 nM (ATR1) or 20 nM (yeast) in the IPUDM assays. Products were quantified by direct TLC analysis of 100 μL of the acidified incubation medium after 6 min incubation at 30° C. for the CTUDM and IPUDM assays, and after 9 min incubation for the monodemethyl-CTUDM.

[4] = biological target: T1, CYP76B1; experiment: biochemical
Procedure: as §1
The binding of substrates into the catalytic site of a P450 usually induces a shift of its maximum of absorbance, redox potential and iron spin state (Raag and Poulos, 1989) resulting from the displacement of the water sixth ligand of the heme iron. It is easily detected by differential spectrophotometry as a so-called type I spectrum with a peak at 390 nm and a trough at 420 nm (Jefcoate, 1978). The variation of the differential absorbance ΔA390-420 versus substrate concentration allows the calculation of an apparent dissociation constant (Ks). A high ΔAmax induced by the ligand is usually an indication of correct positioning for catalysis.
CYP76B1 was 60 nM in the assays. Difference spectra were recorded after the addition of increasing concentrations of ligands to the sample cuvette. An equal volume of the herbicide solvent (DMSO) was added to the reference. Ks and ΔAmax at saturating ligand concentration were calculated from the double-reciprocal plots of ΔA(390-420 nm) versus substrate concentrations.

[5] = biological target: T2, CYP73A1 (Helianthus tuberosus, UniProt Q04468); conditions: chlortoluron hydroxylation; cited from earlier work
T2 construct: host or cells: yeast-expressed, according to b197
T2 sequence (Q04468 1-505): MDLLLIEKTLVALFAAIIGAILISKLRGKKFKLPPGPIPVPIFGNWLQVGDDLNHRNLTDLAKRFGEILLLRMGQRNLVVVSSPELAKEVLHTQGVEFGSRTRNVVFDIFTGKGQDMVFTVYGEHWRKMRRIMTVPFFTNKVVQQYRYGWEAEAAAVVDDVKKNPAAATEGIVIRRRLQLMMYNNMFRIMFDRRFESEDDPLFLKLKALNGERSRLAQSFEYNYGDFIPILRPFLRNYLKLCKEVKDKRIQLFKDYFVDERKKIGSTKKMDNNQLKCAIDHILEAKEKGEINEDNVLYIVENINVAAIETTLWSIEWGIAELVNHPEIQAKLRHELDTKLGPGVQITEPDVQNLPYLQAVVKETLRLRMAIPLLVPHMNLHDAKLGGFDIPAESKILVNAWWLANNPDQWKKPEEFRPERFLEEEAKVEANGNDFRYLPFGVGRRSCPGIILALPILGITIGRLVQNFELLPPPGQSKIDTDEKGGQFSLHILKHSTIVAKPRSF

[6] = system: cotton seedling hypocotyl microsomes; conditions: read-out: Km for demethylation; cited from earlier work
[7] = system: tobacco transformed with CYP76B1; experiment: Leaf pieces of tobacco transformed with CYP76B1 aged on herbicide medium; assay type: cell-based; conditions: 10 days on MS medium containing 0.5 μM linuron; versus empty plasmid
Procedure: FIG. 15 : Leaf pieces from tobacco transformed with CYP76B1 (left) or with an empty plasmid (right) were aged for 10 days on Murashige and Skoog (MS) medium containing 0.5 μM linuron.
The CYP76B1 cDNA was inserted in vector pBDX (Gachotte D., 1995). The resulting vector was mobilized into Agrobacterium tumefaciens strain LBA4404 by triparental mating (Ditta G. et al., 1980). Plant transformation was realized according to Horsch et al. (1985): tobacco leaf disks were soaked for 10 minutes in an Agrobacterium solution, blotted dry and placed on MS callus-inducing medium containing 500 μg/ml cefotaxime and 100 μg/ml kanamycin. After four to six weeks, shoots were transferred on MS-rooting medium containing 100 μg/ml cefotaxime and 100 μg/ml kanamycin. After rooting, plants were transferred in soil.

[8] = 50 μM NADPH, 400 μM 7-ethoxycoumarin

CCOc1ccc2ccc(=O)oc2c1 [7-ethoxycoumarin]
ECOD activity [1]: No activity | ECOD activity [2, 8]: 5.2 ± 0.1 pkat · mg^−1 protein | ECOD activity ([2]; 125 μM cumene hydroperoxide): 2.5 ± 0.09 pkat · mg^−1 protein | ECOD activity ([2]; NADPH + anti-ECOD antibodies): 2.6 ± 0.1 pkat · mg^−1 protein | Vmax ([3]; ECOD, W(R) yeast microsomes, NADPH): 600 pkat.pmole^−1 P450 | ECOD activity [3, 8]: 8.4 ± 0.05 pkat · mg^−1 protein | ECOD activity ([3]; 125 μM cumene hydroperoxide): no activity | ECOD activity ([3]; NADPH + anti-ECOD antibodies): 7.5 ± 0.2 pkat · mg^−1 protein | Activity ([3]; W(R) strain): 8.4 pkat mg-1 protein | turnover of the dealkylation ([3]; W(R) strain): 10 min⁻¹ | Activity ([3]; WAT11 strain): 15.9 pkat mg-1 protein | turnover of the dealkylation ([3]; WAT11 strain): 30 min⁻¹

Cc1ccc(NC(=O)N(C)C)cc1Cl [Chlortoluron, N-(3-chloro-p-tolyl)-N′,N′-dimethylurea]
Kd [4]: 24 µM | ΔAmax × 10^−3 ([4]; CYP76B1 60 nM, at saturating ligand concentration): 5.1 × 10^−3 | Activity ([3]; W(R) strain): 1223 pkat mg-1 protein | turnover of the dealkylation ([3]; W(R) strain): about 376 min^−1 | Activity ([3]; WAT11 strain): 4258 pkat mg-1 protein | turnover of the dealkylation ([3]; WAT11 strain): 803 min⁻¹ | Kcat ([3]; coexpressed reductase ATR1 (WAT11)): 13.4 s⁻¹ | Kcat ([3]; coexpressed yeast reductase (W(R))): 6.27 s⁻¹ | kCat of the second demethylation ([3]; second demethylation, slow step for complete detoxification): 0.767 s⁻¹ | reaction turnover (hydroxylation) [5]: 0.014 min⁻¹

CN(C)C(=O)Nc1ccc(Cl)c(Cl)c1 [Diuron]
Km [6]: 15 µM | Kd [4]: 20 µM

CON(C)C(=O)Nc1ccc(Cl)c(Cl)c1 [linuron]
chlorophyll destruction in leaf pieces [7]: avoids chrorophyll destruction
